# Experimental data reported in PubChem BioAssay (NCI).
#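 Assay format: 96-well plates, 48-hour exposure. GI50 = concentration required for 50% inhibition of growth. TGI is the concentration that stops growth completely.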
# How the values were obtained:
# Experiment in all cases: DTP human tumour cell line panel, 48 h
# SNB-75 CNS = system: SNB-75 CNS
# MDA-MB-435 = system: MDA-MB-435
# KM12 colon = system: KM12 colon
# DU-145 prostate = system: DU-145 prostate
# MDA-MB-231 breast = system: MDA-MB-231 breast
# A498 renal = system: A498 renal
# IGROV1 ovarian = system: IGROV1 ovarian
# COLO 205 colon = system: COLO 205 colon
# SF-539 CNS = system: SF-539 CNS
# OVCAR-4 ovarian = system: OVCAR-4 ovarian
# PC-3 prostate = system: PC-3 prostate
# CCRF-CEM leukemia = system: CCRF-CEM leukemia
# A549 NSCLC = system: A549 NSCLC
# K-562 leukemia = system: K-562 leukemia
# SK-MEL-5 melanoma = system: SK-MEL-5 melanoma
# MCF7 breast = system: MCF7 breast
# M14 melanoma = system: M14 melanoma
# SF-295 CNS = system: SF-295 CNS
# HT29 colon = system: HT29 colon
# NCI-H23 lung = system: NCI-H23 lung
# T-47D breast = system: T-47D breast
# UACC-62 melanoma = system: UACC-62 melanoma
# NCI-H522 lung = system: NCI-H522 lung
# OVCAR-3 ovarian = system: OVCAR-3 ovarian
# RXF 393 renal = system: RXF 393 renal
# HCT-15 colon = system: HCT-15 colon
# BT-549 breast = system: BT-549 breast
# HCT-116 colon = system: HCT-116 colon
# OVCAR-5 ovarian = system: OVCAR-5 ovarian
# MOLT-4 leukemia = system: MOLT-4 leukemia
# HOP-62 NSCLC = system: HOP-62 NSCLC
# RPMI-8226 leukemia = system: RPMI-8226 leukemia
# SF-268 CNS = system: SF-268 CNS
# U251 CNS = system: U251 CNS
# HS 578T breast = system: HS 578T breast
# SW-620 colon = system: SW-620 colon
# LOX IMVI melanoma = system: LOX IMVI melanoma
# SN12C renal = system: SN12C renal
# SNB-19 CNS = system: SNB-19 CNS
# NCI-H460 lung = system: NCI-H460 lung
# EKVX NSCLC = system: EKVX NSCLC
# 786-0 renal = system: 786-0 renal
# SR leukemia = system: SR leukemia
# HL-60(TB) leukemia = system: HL-60(TB) leukemia
# SK-MEL-28 melanoma = system: SK-MEL-28 melanoma
# NCI/ADR-RES ovarian = system: NCI/ADR-RES ovarian
# SK-OV-3 ovarian = system: SK-OV-3 ovarian
# NCI-H226 lung = system: NCI-H226 lung
# HCC-2998 colon = system: HCC-2998 colon
# CAKI-1 renal = system: CAKI-1 renal
# ACHN renal = system: ACHN renal
# OVCAR-8 ovarian = system: OVCAR-8 ovarian
# UO-31 renal = system: UO-31 renal
# UACC-257 melanoma = system: UACC-257 melanoma
# HOP-92 NSCLC = system: HOP-92 NSCLC
# TK-10 renal = system: TK-10 renal
# SK-MEL-2 melanoma = system: SK-MEL-2 melanoma
# MALME-3M melanoma = system: MALME-3M melanoma
smiles,measurement,setting,value
O=C(Nc1n[nH]c2nc(-c3ccco3)c(Br)cc12)C1CC1,GI50,SNB-75 CNS,> 9.08 µM
same,TGI,SNB-75 CNS,> 25 µM
same,GI50,MDA-MB-435,> 25 µM
same,TGI,MDA-MB-435,> 25 µM
same,GI50,KM12 colon,> 25 µM
same,TGI,KM12 colon,> 25 µM
same,GI50,DU-145 prostate,> 25 µM
same,TGI,DU-145 prostate,> 25 µM
same,GI50,MDA-MB-231 breast,> 25 µM
same,TGI,MDA-MB-231 breast,> 25 µM
same,GI50,A498 renal,> 12.5 µM
same,TGI,A498 renal,> 25 µM
same,GI50,IGROV1 ovarian,> 25 µM
same,TGI,IGROV1 ovarian,> 25 µM
same,GI50,COLO 205 colon,> 25 µM
same,TGI,COLO 205 colon,> 25 µM
same,GI50,SF-539 CNS,> 25 µM
same,TGI,SF-539 CNS,> 25 µM
same,GI50,OVCAR-4 ovarian,> 25 µM
same,TGI,OVCAR-4 ovarian,> 25 µM
same,GI50,PC-3 prostate,> 25 µM
same,TGI,PC-3 prostate,> 25 µM
same,GI50,CCRF-CEM leukemia,> 21.7 µM
same,TGI,CCRF-CEM leukemia,> 25 µM
same,GI50,A549 NSCLC,> 25 µM
same,TGI,A549 NSCLC,> 25 µM
same,GI50,K-562 leukemia,> 25 µM
same,TGI,K-562 leukemia,> 25 µM
same,GI50,SK-MEL-5 melanoma,> 16.4 µM
same,TGI,SK-MEL-5 melanoma,> 25 µM
same,GI50,MCF7 breast,> 7.12 µM
same,TGI,MCF7 breast,> 25 µM
same,GI50,M14 melanoma,> 25 µM
same,TGI,M14 melanoma,> 25 µM
same,GI50,SF-295 CNS,> 25 µM
same,TGI,SF-295 CNS,> 25 µM
same,GI50,HT29 colon,> 25 µM
same,TGI,HT29 colon,> 25 µM
same,GI50,NCI-H23 lung,> 25 µM
same,TGI,NCI-H23 lung,> 25 µM
same,GI50,T-47D breast,> 25 µM
same,TGI,T-47D breast,> 25 µM
same,GI50,UACC-62 melanoma,> 25 µM
same,TGI,UACC-62 melanoma,> 25 µM
same,GI50,NCI-H522 lung,> 25 µM
same,TGI,NCI-H522 lung,> 25 µM
same,GI50,OVCAR-3 ovarian,> 25 µM
same,TGI,OVCAR-3 ovarian,> 25 µM
same,GI50,RXF 393 renal,4.89 µM
same,TGI,RXF 393 renal,> 25 µM
same,GI50,HCT-15 colon,> 25 µM
same,TGI,HCT-15 colon,> 25 µM
same,GI50,BT-549 breast,> 25 µM
same,TGI,BT-549 breast,> 25 µM
same,GI50,HCT-116 colon,> 25 µM
same,TGI,HCT-116 colon,> 25 µM
same,GI50,OVCAR-5 ovarian,> 25 µM
same,TGI,OVCAR-5 ovarian,> 25 µM
same,GI50,MOLT-4 leukemia,> 25 µM
same,TGI,MOLT-4 leukemia,> 25 µM
same,GI50,HOP-62 NSCLC,> 25 µM
same,TGI,HOP-62 NSCLC,> 25 µM
same,GI50,RPMI-8226 leukemia,> 25 µM
same,TGI,RPMI-8226 leukemia,> 25 µM
same,GI50,SF-268 CNS,> 25 µM
same,TGI,SF-268 CNS,> 25 µM
same,GI50,U251 CNS,> 25 µM
same,TGI,U251 CNS,> 25 µM
same,GI50,HS 578T breast,> 25 µM
same,TGI,HS 578T breast,> 25 µM
same,GI50,SW-620 colon,> 25 µM
same,TGI,SW-620 colon,> 25 µM
same,GI50,LOX IMVI melanoma,> 21.7 µM
same,TGI,LOX IMVI melanoma,> 25 µM
same,GI50,SN12C renal,> 25 µM
same,TGI,SN12C renal,> 25 µM
same,GI50,SNB-19 CNS,> 25 µM
same,TGI,SNB-19 CNS,> 25 µM
same,GI50,NCI-H460 lung,> 25 µM
same,TGI,NCI-H460 lung,> 25 µM
same,GI50,EKVX NSCLC,> 25 µM
same,TGI,EKVX NSCLC,> 25 µM
same,GI50,786-0 renal,> 25 µM
same,TGI,786-0 renal,> 25 µM
same,GI50,SR leukemia,> 25 µM
same,TGI,SR leukemia,> 25 µM
same,GI50,HL-60(TB) leukemia,> 25 µM
same,TGI,HL-60(TB) leukemia,> 25 µM
same,GI50,SK-MEL-28 melanoma,> 25 µM
same,TGI,SK-MEL-28 melanoma,> 25 µM
same,GI50,NCI/ADR-RES ovarian,> 25 µM
same,TGI,NCI/ADR-RES ovarian,> 25 µM
same,GI50,SK-OV-3 ovarian,15.9 µM
same,TGI,SK-OV-3 ovarian,> 25 µM
same,GI50,NCI-H226 lung,> 25 µM
same,TGI,NCI-H226 lung,> 25 µM
same,GI50,HCC-2998 colon,> 25 µM
same,TGI,HCC-2998 colon,> 25 µM
same,GI50,CAKI-1 renal,> 25 µM
same,TGI,CAKI-1 renal,> 25 µM
same,GI50,ACHN renal,> 25 µM
same,TGI,ACHN renal,> 25 µM
same,GI50,OVCAR-8 ovarian,> 25 µM
same,TGI,OVCAR-8 ovarian,> 25 µM
same,GI50,UO-31 renal,> 25 µM
same,TGI,UO-31 renal,> 25 µM
same,GI50,UACC-257 melanoma,> 25 µM
same,TGI,UACC-257 melanoma,> 25 µM
same,GI50,HOP-92 NSCLC,> 25 µM
same,TGI,HOP-92 NSCLC,> 25 µM
same,GI50,TK-10 renal,> 25 µM
same,TGI,TK-10 renal,> 25 µM
same,GI50,SK-MEL-2 melanoma,> 25 µM
same,TGI,SK-MEL-2 melanoma,> 25 µM
same,GI50,MALME-3M melanoma,> 25 µM
same,TGI,MALME-3M melanoma,> 25 µM
